From patent US20070219115A1, “Pharmaceutical Uses of Bisphosphonates” (priority 2003, published 2007)

Assays:
MCF7 cells = assay: Apoptosis of MCF7 cells treated with ZOL and/or PAC, evaluated by nuclear morphology; format: cell-based; settings: for apoptosis: Experiment 2: 2 nM PAC 4 hours day 1, 1 μM ZOL 1 hour day 2, combined or alone, drug free medium to 48 hours
Protocol: MCF7 cells are seeded and pre-incubated then treated with ZOL and/or PAC in the sequences given below. In the case of the PAC then ZOL sequence, in one of the experiments geranylglycerol (GGOH, 50 μM) is added and then removed with the ZOL. Apoptosis is determined by evaluation of nuclear morphology.
Group 1: 25 μM ZOL (for 1 hour on day 1) followed by 2 nM PAC (for 4 hours day 2)
Group 2: 2 nM PAC (for 4 hours on day 1) followed by 25 μm ZOL (for 1 hour on day 2)
Following the last drug exposure the cells in each group are incubated in drug free medium to 48 hours.
2 nM PAC (for 4 hours on day 1) followed by 1 μM ZOL (for 1 hour on day 2). Following the last drug exposure the cells are incubated in drug free medium to 48 hours.
2 nM PAC (for 4 hours on day 1) followed by 25 μM or 1 μM ZOL (for 1 hour on day 2), with or without geranylgeraniol (GGOH) 50 μM (added and removed simultaneously with the ZOL). Following the last drug exposure the cells are incubated in drug free medium to 48 hours.

MCF7Ca cells [1] = assay: Apoptosis/necrosis of MCF7Ca cells, nuclear morphology after Hoechst and propidium iodide staining; format: cell-based; settings: for apoptotic cell death, each drug individually: MCF7Ca treated with each drug individually
Protocol: (§1) Breast cancer cells MCF7Ca (gift from Dr Chen, NY, USA) are used. Letrozole and zoledronic acid are provided by Novartis AG, Basel, Switzerland.
Following the initial dose-response studies the sequential and combined treatments are carried out using 10 μM zoledronic acid and 100 nM letrozole for 24 hours each, followed by a drug-free incubation period up to 24 hours. In some additional studies 1 μM zoledronic acid is used for 1 hour only.
The levels of apoptotic/necrotic tumour cell death are determined by evaluation of nuclear morphology following staining of the cells using Hoechst and propidium iodide.
The levels of apoptosis and necrosis caused by increasing doses of zoledronic acid is determined by expressing the cells to zoledronic acid for 1 hour, followed by a 72 hour incubation in drug-free medium. [drawing]
The levels of apoptosis caused by increasing doses of letrozole is determined by exposing the cells to letrozole for 72 hours. [drawing]
Cells are treated with a combination of 100 nM letrozole and 10 μM zoledronic acid for 24 hours, and the levels of apoptotic cell death determined following an additional 48 hours incubation in drug-free medium. [drawing]
In this series of experiments the cells are exposed to 10 μM zoledronic acid for 24 hours, washed and subsequently treated with 100 nM letrozole for 24 hours. The levels of apoptotic cell death are determined following a further 24 hours incubation in drug-free medium. [drawing]
(GGOH is an intermediary of the mevalonate pathway and is commonly used to reverse the effects of zoledronic acid inhibition of this pathway). In this set of experiments cells are treated with 100 nM letrozole for 24 hours followed by 1 hour treatment with 10 μM zoledronic acid+50 μM GGOH. The level of apoptosis is determined at 72 hours.
These experiments are performed in order to determine if the effects of zoledronic acid and letrozole are affected by starving the cells by treating them under serum-free conditions. [drawing]

MCF7Ca cells [2] = assay: MCF7Ca cell growth, cells counted with coulter counter; format: cell-based
Protocol: as §1
MCF7Ca cells are exposed to increasing doses of zoledronic acid for 1 hour, the drug removed and the cells incubated in drug-free medium up to 72 hours. The number of cells are counted using a coulter counter. [drawing]
MCF7Ca cells are exposed to increasing doses of letrozole for 24, 48 and 72 hours. For the 24 and 48 hour time points the drug is removed and the cells incubated in drug-free medium up to 72 hours. The number of cells are counted using a coulter counter. [drawing]

[3] = following infusion of ZOL in vivo, for a few hours; cited from earlier work
[4] = test system: breast cancer lines MDA-MB-426 and MCF7; assay: Apoptosis of breast cancer cells treated with ZOL and TRAIL; format: cell-based; settings: single agents as controls
Protocol: The breast cancer lines MDA-MB-426 and MCF7 and the prostate cancer cell line PC3 are treated with ZOL (25 μM and TRAIL (purchased from R&D systems, Abingdon, UK; 10 ng/ml) for varying incubation periods and sequences as follows:
Group 1: TRAIL given first for 24 hours followed by ZOL for 48 hours. […]
Group 3: ZOL and TRAIL given simultaneously for 24 hours.
Group 4: TRAIL given first for 24 hours then ZOL for 4 hours followed by drug-free medium for 48 hours.
Group 5: ZOL given first for 4 hours and cells maintained in drug-free medium for 48 hours followed by TRAIL for 24 hours.

[5] = 100 μM, 1 hour exposure, 72 hour drug-free
[6] = group 1: TRAIL 10 ng/ml 24 hours followed by ZOL 25 μM 48 hours
[7] = group 2: ZOL 25 μM for 48 hours followed by TRAIL 10 ng/ml
[8] = group 3: ZOL 25 μM and TRAIL 10 ng/ml together for 24 hours
[9] = 100 nM (highest dose tested), 72 hours

## CC(=O)O[C@H]1C(=O)[C@@]2(C)[C@H]([C@H](OC(=O)c3ccccc3)[C@]3(O)C[C@H](OC(=O)[C@H](O)[C@@H](NC(=O)c4ccccc4)c4ccccc4)C(C)=C1C3(C)C)[C@]1(OC(C)=O)CO[C@@H]1C[C@@H]2O (relative stereo) [PAC, [2aR-[2aα, 4β, 4αβ, 6αβ, 9α(αR*, βS*),-11α,12α,12aα,12bα]]-β-(benzoylamino)-α-hydroxybenzenepropanoic acid 6,12b-bis(acetyloxy)-12-(benzoyloxy)-2α,3,4,4a,5,6,9,10,11,12,12a,12b-dodecahydro-4,11-dihydroxy-4a,8,13,13-tetramethyl-5-oxo-7,11-methano-1H-cyclodeca[3,4]benz[1,2-b]oxet-9-yl ester]
MCF7 cells
  apoptosis: 1.25%

## CC(C)=CCC/C(C)=C/CC/C(C)=C/CC/C(C)=C/CO [GGOH, geranylgeraniol]
MCF7Ca cells [1]; 100 nM letrozole 24 hours followed by 1 hour 10 μM zoledronic acid + 50 μM GGOH, apoptosis at 72 hours
  level of apoptosis with GGOH added: reduced to the same level observed using letrozole alone
MCF7 cells; Experiment 3: PAC followed by ZOL combined with GGOH 50 μM
  prevention of the synergistic increase in apoptotic cell death: 70-80%

## O=P(O)(O)C(O)(Cn1ccnc1)P(=O)(O)O [ZOL, 2-(imidazol-1yl)-1-hydroxyethane-1,1-diphosphonic acid]
MCF7Ca cells [2]; 1 hour exposure, drug-free medium up to 72 hours
  doses causing a decrease in the number of MCF7Ca: above 1 μM
MCF7Ca cells [1]; [5]
  apoptotic cells: less than 3%
  necrotic cell death: 4.5%
MCF7Ca cells [1]
  apoptotic cell death, each drug individually: do not induce significant levels of apoptotic cell death
MCF7 cells
  apoptosis: 0.25%
[3]
  peak plasma concentration: 1 to 2 µM
[4]; [6]
  apoptosis: 0.5%
[4]; [7]
  apoptosis: 0.7%
[4]; [8]
  apoptosis: 0.7%

## N#Cc1ccc(C(c2ccc(C#N)cc2)n2cncn2)cc1 [letrozole, 4-[α-(4-cyanophenyl)-1-(1,2,4-triazolyl)methyl]-benzonitrile]
MCF7Ca cells [2]; 0.1 nM (all time points), 1 nM (24 and 48 hours)
  effect on cell number at low doses: Increased number of cells
MCF7Ca cells [2]; 100 nM letrozole, 72 hours
  reduction in cell number compared to control: 31%
MCF7Ca cells [1]; [9]
  apoptosis: less than 3%
  necrosis: less than 4%
MCF7Ca cells [1]
  apoptotic cell death, each drug individually: do not induce significant levels of apoptotic cell death

B1: TRAIL: TNF-related apoptosis inducing ligand, purchased from R&D systems (protein, UniProt P50591 1-281, looked up)
Tumor necrosis factor ligand …: MAMMEVQGGPSLGQTCVLIVIFTVLLQSLCVAVTYVYFTNELKQMQDKYSKSGIACFLKEDDSYWDPNDEESMNSPCWQVKWQLRQLVRKMILRTSEETISTVQEKQQNISPLVRERGPQRVAAHITGTRGRSNTLSSPNSKNEKALGRKINSWESSRSGHSFLSNLHLRNGELVIHEKGFYYIYSQTYFRFQEEIKENTKNDKQMVQYIYKYTSYPDPILLMKSARNSCWSKDAEYGLYSIYQGGIFELKENDRIFVSVTNEHLIDMDHEASFFGAFLVG
[4]; [6]
  apoptosis: 1.75%
[4]; [7]
  apoptosis: 2.7%
[4]; [8]
  apoptosis: 1.75%
